Target: D(3) dopamine receptor (Homo sapiens, UniProt P35462)
Sequence (P35462 as listed by the source): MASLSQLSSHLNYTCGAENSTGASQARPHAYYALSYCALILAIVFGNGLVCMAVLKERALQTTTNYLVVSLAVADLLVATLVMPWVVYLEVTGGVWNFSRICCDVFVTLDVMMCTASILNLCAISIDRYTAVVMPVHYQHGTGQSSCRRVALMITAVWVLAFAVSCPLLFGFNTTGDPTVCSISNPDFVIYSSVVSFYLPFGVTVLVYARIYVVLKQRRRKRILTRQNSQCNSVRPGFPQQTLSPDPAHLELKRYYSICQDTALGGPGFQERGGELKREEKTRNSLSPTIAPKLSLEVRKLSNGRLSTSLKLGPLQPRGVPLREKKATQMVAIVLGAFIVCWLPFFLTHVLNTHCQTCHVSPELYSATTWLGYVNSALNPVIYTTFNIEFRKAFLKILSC

| Structure (SMILES) | Ki [nM] |
| --- | --- |
| Cc1cc2c(cc1C)CC(N)CC2 (configuration not stated) [ADTN DIMETHYL 5,6] | 17 |
| NC1CCc2cc(OC(=O)c3ccccc3)c(OC(=O)c3ccccc3)cc2C1 (configuration not stated) [CAS_129816] | 160 |
| CCCN(CCC)C1C=Cc2c(OC)cccc2C1C (configuration not stated) [CAS_5311190] | 4.9 |
| COc1ccc2c(c1O)-c1c3c(cc4c1[C@H](C2)N(C)CC4)OCO3 [(S)-11-methoxy-7-methyl-6,7,7a,8-tetrahydro-5H-benzo[g][1,3]dioxolo[4',5':4,5]benzo[1,2,3-de]quinolin-12-ol] | 5200 |
| CCCN(CCC)C1CCc2cc(O)c(O)cc2C1 (racemic) [CAS_62421-17-4] | 0.68 |
| CCCN1CCc2cc(F)cc3c2C1Cc1ccc(O)c(O)c1-3 (configuration not stated) [CAS_18426-20-5] | 0.21 |
| CC(C)C[C@H]1C(=O)N2CCC[C@H]2[C@]2(O)O[C@](NC(=O)[C@@H]3C=C4c5cccc6[nH]c(Br)c(c56)C[C@H]4N(C)C3)(C(C)C)C(=O)N12 [Bromocriptine+ (GTP+)] | 2.1 |
